Experimental data from patent publication US7964594B1, “Amino oxazine derivatives” (Hoffmann-La Roche Inc., priority 2009, dated 2011).

target: T1, BACE2 (Rattus norvegicus, UniProt Q6IE75); experiment: Assay for BACE inhibition by measuring cellular TMEM27 cleavage (INS-TMEM27 cells, ELISA of shed TMEM27); format: cell-based; settings: inhibition of human TMEM27 cleavage by endogenous cellular BACE2 in Ins1e rat cell line; ELISA of culture medium
T1 construct: endogenous cellular BACE2 in the Ins1e rat cell line; endogenous in cells; host or cells: INS-TMEM27 (INS1e-derived rat insulinoma cell line with doxycycline-inducible full-length hTMEM27)
T1 sequence (Q6IE75 63-514): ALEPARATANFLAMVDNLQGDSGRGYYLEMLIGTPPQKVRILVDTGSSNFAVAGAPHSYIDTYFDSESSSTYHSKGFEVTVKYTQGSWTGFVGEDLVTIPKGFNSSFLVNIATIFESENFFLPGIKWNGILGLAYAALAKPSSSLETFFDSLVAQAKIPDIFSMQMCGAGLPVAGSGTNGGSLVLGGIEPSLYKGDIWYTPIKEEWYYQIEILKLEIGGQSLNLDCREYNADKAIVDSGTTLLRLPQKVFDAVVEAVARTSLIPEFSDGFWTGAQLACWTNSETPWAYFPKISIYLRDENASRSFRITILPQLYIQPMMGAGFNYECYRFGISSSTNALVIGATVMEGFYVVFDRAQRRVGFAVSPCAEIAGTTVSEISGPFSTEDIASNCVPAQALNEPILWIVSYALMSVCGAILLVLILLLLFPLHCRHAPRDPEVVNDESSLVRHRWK
Source text: Assay for BACE Inhibition by Measuring Cellular TMEM27 Cleavage
The assay uses the principle of inhibition of human TMEM27 cleavage by endogenous cellular BACE2 in the Ins1e rat cell line and shedding from the cell surface into the culture medium, followed by detection in an ELISA assay. Inhibition of BACE2 prevents the cleavage and shedding in a dose-dependent manner.
The stable cell line “INS-TMEM27” represents an INS1e-derived cell line with inducible expression (using the TetOn system) of full-length hTMEM27 in a doxycycline-dependent manner. The cells were cultured throughout the experiment in RPMI1640+Glutamax (Invitrogen) Penicillin/Streptomycin, 10% Fetal bovine serum, […], […], 100 micrograms/ml G418 and 100 microgram/ml hygromycin and were grown in adherent culture at 37° C. in a standard CO2 cell culture incubator.
INS-TMEM27 cells were seeded in 96-well plates. After 2 days in culture, BACE2 inhibitor was added in a range of concentrations as required by the assay and after a further two hours, doxycycline was added to a final concentration of 500 ng/ml. The cells were incubated for a further 46 hours and the supernatant harvested for detection of shed TMEM27.
An ELISA assay (using a pair of mouse anti-human-TMEM27 antibodies, raised against the extracellular domain of TMEM27) was used for detection of TMEM27 in the culture medium. An IC50 for BACE2 inhibition was calculated using the ELISA readout for each inhibitor concentration with standard curve-fitting software XLfit (IDBS) for the Excel spreadsheet program.

First: C[C@]1(c2cc(NC(=O)C3CC3(F)F)ccc2F)N=C(N)OCC12CC2 (mixture of isomers) [Example 55, N-(3-((S)-6-Amino-8-methyl-5-oxa-7-azaspiro[2.5]oct-6-en-8-yl)-4-fluorophenyl)-2,2-difluorocyclopropanecarboxamide]
Second: C[C@@]1(c2cc(NC(=O)c3ccc(F)s3)ccc2F)CCOC(N)=N1 [Example 7, 5-Fluoro-thiophene-2-carboxylic acid [3-((S)-2-amino-4-methyl-5,6-dihydro-4H-[1,3]oxazin-4-yl)-4-fluoro-phenyl]-amide]
The IC50 of the first is 6.2-fold higher: 2100 nM for the first, 340 nM for the second. The second is the more potent here.

First: C[C@@]1(c2cc(NC(=O)c3ncc(Cl)cc3Cl)ccc2F)CCOC(N)=N1 [Example 1, 3,5-Dichloro-pyridine-2-carboxylic acid [3-((S)-2-amino-4-methyl-5,6-dihydro-4H-[1,3]oxazin-4-yl)-4-fluoro-phenyl]-amide]
Second: C[C@@]1(c2cc(NC(=O)c3ccc(Cl)cn3)ccc2F)CCOC(N)=N1 [Example 2, 5-Chloro-pyridine-2-carboxylic acid [3-((S)-2-amino-4-methyl-5,6-dihydro-4H-[1,3]oxazin-4-yl)-4-fluoro-phenyl]-amide]
The IC50 of the first is 2.5-fold lower: 4 nM for the first, 10 nM for the second. The first is the more potent here.

`C[C@@]1(c2cc(NC(=O)c3ccc(F)cn3)ccc2F)CCOC(N)=N1` [Example 3, 5-Fluoro-pyridine-2-carboxylic acid [3-((S)-2-amino-4-methyl-5,6-dihydro-4H-[1,3]oxazin-4-yl)-4-fluoro-phenyl]-amide] and `Cc1ccc(C(=O)Nc2ccc(F)c([C@]3(C)CCOC(N)=N3)c2)nc1` [Example 15] are within 1.5-fold of each other in IC50: 6 nM for the first, 4.5 nM for the second.

Compared with `C[C@@]1(c2cc(NC(=O)c3ccccn3)ccc2F)CCOC(N)=N1` [Example 4, Pyridine-2-carboxylic acid [3-((S)-2-amino-4-methyl-5,6-dihydro-4H-[1,3]oxazin-4-yl)-4-fluoro-phenyl]-amide], `C[C@@]1(c2cc(NC(=O)c3cc(Cl)ccn3)ccc2F)CCOC(N)=N1` [Example 9] is 1.6-fold lower in IC50: 230 nM for the first, 143 nM for the second.

Compared with `C[C@@]1(c2cc(NC(=O)c3ccc(C(F)(F)F)cn3)ccc2F)CCOC(N)=N1` [Example 5, 5-Trifluoromethyl-pyridine-2-carboxylic acid [3-((S)-2-amino-4-methyl-5,6-dihydro-4H-[1,3]oxazin-4-yl)-4-fluoro-phenyl]-amide], `C[C@@]1(c2cc(NC(=O)c3cnc(Cl)cn3)ccc2F)CCOC(N)=N1` [Example 14] is 2.1-fold higher in IC50: 89 nM for the first, 190 nM for the second. The first is the more potent here.

`C[C@@]1(c2cc(NC(=O)c3ncccc3F)ccc2F)CCOC(N)=N1` [Example 6, 3-Fluoro-pyridine-2-carboxylic acid [3-((S)-2-amino-4-methyl-5,6-dihydro-4H-[1,3]oxazin-4-yl)-4-fluoro-phenyl]-amide] and `C[C@@]1(c2cc(NC(=O)c3nccc4ccsc34)ccc2F)CCOC(N)=N1` [Example 11, Thieno[2,3-c]pyridine-7-carboxylic acid [3-((S)-2-amino-4-methyl-5,6-dihydro-4H-[1,3]oxazin-4-yl)-4-fluoro-phenyl]-amide] are within 1.5-fold of each other in IC50: 19 nM for the first, 28 nM for the second.

Compared with `Cc1nc(C(=O)Nc2ccc(F)c([C@]3(C)CCOC(N)=N3)c2)co1` [Example 8], `C[C@@]1(c2cc(NC(=O)c3ccc(Cl)s3)ccc2F)CCOC(N)=N1` [Example 10, 5-Chloro-thiophene-2-carboxylic acid [3-((S)-2-amino-4-methyl-5,6-dihydro-4H-[1,3]oxazin-4-yl)-4-fluoro-phenyl]-amide] is 48-fold higher in IC50: 19 nM for the first, 915 nM for the second. The first is the more potent here.

Compared with `C[C@@]1(c2cc(NC(=O)c3ncccc3-c3ccccc3)ccc2F)CCOC(N)=N1` [Example 12, 3-Phenyl-pyridine-2-carboxylic acid [3-((S)-2-amino-4-methyl-5,6-dihydro-4H-[1,3]oxazin-4-yl)-4-fluoro-phenyl]-amide], `C[C@@]1(c2cc(NC(=O)c3cc4ccccc4s3)ccc2F)CCOC(N)=N1` [Example 13, Benzo[b]thiophene-2-carboxylic acid [3-((S)-2-amino-4-methyl-5,6-dihydro-4H-[1,3]oxazin-4-yl)-4-fluoro-phenyl]-amide] is 1.5-fold higher in IC50: 34 nM for the first, 52 nM for the second. The first is the more potent here.
